# According to US20250296942A1, “Phosphonate-Based Coordination Complexes and Methods of Preparation and Use Thereof” (University of Puerto Rico, priority 2021, published 2025):
# System: human breast cancer MDA-MB-231 cell line
# Test: AlamarBlue cytotoxicity, BPBPA series, MDA-MB-231
# Format: cell-based
# Conditions: for IC50: Homo sapiens
# Description: Cell culture methods. MCF-7, MDA-MB-231, and hFOB 1.19 cell lines were incubated employing DMEM (37° C.) and DMEM: F12 (34° C.) medium, respectively, in a 5% CO2. Cell lines were supplemented using 10% FBS and 1% Pen-Strep and medium exchange was performed twice a week. Cell passages were carried out at 80% confluency.
# Cell-based assays. Cell lines were seeded in 96 well plates at a density of 5×10^3 cells/mL, cells were incubated for 24 h before treatment. Both cell lines were treated with 100 μL of BPBPA (0-400 μM), LET (0-200 μM), unloaded and loaded nano-Ca@BPBPA (0-50 μM). All cell-based assays were performed for 24, 48, and 72 h of treatment. Control groups were treated with media (DMEM or DMEM: F12) supplemented with 1% Pen-Strep. Then, the media was removed and replaced with 100 μL of 10% AlamarBlue® solution. The 96 well plates were incubated for 4 h before measurements. Then, the fluorescence was assessed at 560 nm of excitation and λmax 590 nm of emission. The cell viability (%) was evaluated by contrasting the percentage of live cells of the control groups with the cells treated with BPBPA, LET, unloaded and loaded nano-Ca@BPBPA. The half-maximal inhibitory concentration (IC50) was determined for BPBPA and letrozole employing the dose-response curves (% cell live vs. concentration). The relative cell live (% RCL) was assessed for the unloaded and loaded nano-Ca@BPBPA, utilizing LET as a control group. The IC50 and % RCL were plotted using the GraphPad Prism software vs. 9.3.0.
# The cytotoxicity of BPBPA (control), LET (control), nano-Ca@BPBPA (control), and drug-loaded nano-Ca@BPBPA (experimental) was investigated employing the human breast cancer, MCF-7 and MDA-MB-231, and the human osteoblast, hFOB 1.19, cell lines. The human MCF-7 cell line represents an ER-positive breast cancer model with estrogen, progesterone, and glucocorticoid receptors.^1 While, the human MDA-MB-231 cells correspond to a model of ER-negative breast cancer. Both selected cancer cell lines can be implicated in the development and progress of bone metastases in patients.^40,41 The human fetal hFOB 1.19 cells represent a homogeneous osteoblast-like (non-cancerous) model commonly employed to assess osteoblast differentiation.^42 The cytotoxicity of these materials was evaluated by determining the IC50 and % RCL. […] Similar results were found for MDA-MB-231 and hFOB 1.19 cell lines treated with LET (IC50 >200 μM) at the same time points (Supporting Information).
# Cell culture methods. MCF-7 and MDA-MB-231 were incubated employing DMEM media at 37° C. in 5% CO2. The hFOB 1.19 cell lines were incubated using DMEM: F12 at 34° C. in 5% CO2. Cell lines were supplemented using 10% FBS and 1% Pen-Strep. The media was exchanged twice per week. Cell passages were carried out at 80% confluency.
# Seeding. Cell lines were seeded in 96 well plates at a density of […] cells/mL; cells were incubated for 24 h before each treatment.
# Treatment. Cell lines were treated with 100 μL of BPBPA (0-400 μM), LET (0-200 μM), unloaded and loaded nano-Ca@BPBPA (0.5-50 μM). Control groups were treated with media (DMEM or DMEM: F12) supplemented with 1% Pen-Strep. All cell-based assays were performed after 24, 48, and 72 h of treatment and in triplicate.
# AlamarBlue@assay. To determine the cell viability, the media was removed and replaced with 100 μL of 10% AlamarBlue® solution. The 96 well plates were incubated for 4 h before measurements. Then, the fluorescence was assessed at 560 nm of excitation and λmax 590 nm of emission.
compound,measurement,setting,value
"N#Cc1ccc(C(c2ccc(C#N)cc2)n2cncn2)cc1 [LET, letrozole]",% RCL,"12.5 μM, 72 h",99±1%
same,% RCL,"50 μM, 24 h",~86%
same,% RCL,"50 μM, 48 h",~83%
same,% RCL,"50 μM, 72 h",~82%
same,IC50,24 h,> 200 µM
same,IC50,48 h,> 200 µM
same,IC50,72 h,> 200 µM
